# Test results: patent US20240016781A1, “TREATMENT OF KRAS MUTANT CANCERS” (MEI Pharma, Inc., priority 2020, published 2024)
# Where two headings read alike, the source gives them in different places.
# What was measured:
# Huh-7 xenografts = assay: CIVO intratumoral microinjection, Huh-7 xenografts; format: in vivo; details: Huh-7 liver cancer model
# Text: FIG. 6 depicts the CIVO injection array.
# CC3 is not elevated over background levels at any injection site.
# MIA PaCa-2 = assay: 72-hour CellTiter-Glo 2.0 growth inhibition screen (single agent, 9x9 combination dose matrix); format: cell-based;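 as to Best CI Level: inhibition effect level at which the best CI was calculated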
# NCI-H1373 = assay: as above; format: cell-based; details: for Emax: NCI-H1373;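 as to Best CI Level: inhibition effect level at which the best CI was calculated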
# NCI-H1792 = assay: as above; format: cell-based;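 as to Best CI Level: inhibition effect level at which the best CI was calculated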
# NCI-H2030 = assay: as above; format: cell-based; details: for Emax: NCI-H2030;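 as to Best CI Level: inhibition effect level at which the best CI was calculated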
# NCI-H23 = assay: as above; format: cell-based;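 as to Best CI Level: inhibition effect level at which the best CI was calculated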
# [1] = MIA PaCa-2, Pancreas, Additional Single Agent Responses (inhibition, % I), 72 h
# [2] = MIA PaCa-2, Pancreas, growth inhibition (GI) curve, single agent, 72 h
# [3] = MIA PaCa-2, Pancreas, growth inhibition (GI), AUC, single agent, 72 h
# [4] = NCl-H1373, Lung, Additional Single Agent Responses (inhibition, % I), 72 h
# [5] = NCl-H1373, Lung, growth inhibition (GI) curve, single agent, 72 h
# [6] = NCl-H1373, Lung, growth inhibition (GI), AUC, single agent, 72 h
# [7] = NCl-H1792, Lung, Additional Single Agent Responses (inhibition, % I), 72 h
# [8] = NCl-H1792, Lung, growth inhibition (GI) curve, single agent, 72 h
# [9] = NCl-H1792, Lung, growth inhibition (GI), AUC, single agent, 72 h
# [10] = NCl-H2030, Lung, Additional Single Agent Responses (inhibition, % I), 72 h
# [11] = NCl-H2030, Lung, growth inhibition (GI) curve, single agent, 72 h
# [12] = NCl-H2030, Lung, growth inhibition (GI), AUC, single agent, 72 h
# [13] = NCl-H23, Lung, Additional Single Agent Responses (inhibition, % I), 72 h
# [14] = NCl-H23, Lung, growth inhibition (GI) curve, single agent, 72 h
# [15] = NCl-H23, Lung, growth inhibition (GI), AUC, single agent, 72 h
# [16] = Homo sapiens, MIA PaCa-2, Pancreas, Additional Single Agent Responses (inhibition, % I), 72 h
# [17] = MIA PaCa-2 (KRAS G12C), enhancer + MEI-522 (Voruciclib), 72 h;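 as to Best CI Level: inhibition effect level at which the best CI was calculated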
# [18] = enhancer combined with MEI-522 (Voruciclib), MIA PaCa-2 (Pancreas), 72 hours, inhibition data
# [19] = NCl-H1373 (KRAS G12C), enhancer + MEI-522 (Voruciclib), 72 h
# [20] = enhancer combined with MEI-522 (Voruciclib), NCl-H1373 (Lung), 72 hours, inhibition data
# [21] = NCl-H1792 (KRAS G12C), enhancer + MEI-522 (Voruciclib), 72 h
# [22] = enhancer combined with MEI-522 (Voruciclib), NCl-H1792 (Lung), 72 hours, inhibition data
# [23] = NCl-H2030 (KRAS G12C), enhancer + MEI-522 (Voruciclib), 72 h
# [24] = enhancer combined with MEI-522 (Voruciclib), NCl-H2030 (Lung), 72 hours, inhibition data
# [25] = Homo sapiens, NCI-H23, NCl-H23, Lung, Additional Single Agent Responses (inhibition, % I), 72 h
# [26] = NCl-H23 (KRAS G12C), enhancer + MEI-522 (Voruciclib), 72 h
# [27] = enhancer combined with MEI-522 (Voruciclib), NCl-H23 (Lung), 72 hours, inhibition data
smiles,measurement,setting,value
"CN1CC[C@@H](c2c(O)cc(O)c3c(=O)cc(-c4ccc(C(F)(F)F)cc4Cl)oc23)[C@@H]1CO [Voruciclib, (+)-trans-2-(2-Chloro-4-trifluoromethylphenyl)-5,7-dihydroxy-8-(2-hydroxymethyl-1-methylpyrrolidin-3-yl)-chromen-4-one]",apoptotic cells (CC3),Huh-7 xenografts,do not result in an increase in apoptotic cells
CN1CCN(c2ccc(OC(F)(F)F)c(Nc3ncc4c(n3)-c3c(c(C(N)=O)nn3CCO)CC4)c2)CC1 [Onvansertib],apoptotic cells (CC3),Huh-7 xenografts,do not result in an increase in apoptotic cells
CN1CC[C@@H](c2c(O)cc(O)c3c(=O)cc(-c4ccc(C(F)(F)F)cc4Cl)oc23)[C@@H]1CO [MEI-522(Voruciclib)],EC50,MIA PaCa-2; [1],894 nM
same,IC50,MIA PaCa-2; [1],1070 nM
same,Response Area,MIA PaCa-2; [1],2.64
same,Max Response (% I),"MIA PaCa-2; MIA PaCa-2, Pancreas, Additional Single Agent Responses, 72 h",85 % I
same,EC50,MIA PaCa-2; [2],1130 nM
same,GI50,MIA PaCa-2; [2],868 nM
same,Response Area,MIA PaCa-2; [3],3.63
same,Max Response (% GI),"MIA PaCa-2; MIA PaCa-2, Pancreas, growth inhibition (GI), single agent, 72 h",116 % GI
same,EC50,NCI-H1373; [4],1030 nM
same,IC50,NCI-H1373; [4],1230 nM
same,Response Area,NCI-H1373; [4],2.58
same,Max Response (% I),"NCI-H1373; NCl-H1373, Lung, Additional Single Agent Responses, 72 h",86 % I
same,EC50,NCI-H1373; [5],1390 nM
same,GI50,NCI-H1373; [5],972 nM
same,Response Area,NCI-H1373; [6],4.24
same,Max Response (% GI),"NCI-H1373; NCl-H1373, Lung, growth inhibition (GI), single agent, 72 h",147 % GI
same,EC50,NCI-H1792; [7],1350 nM
same,IC50,NCI-H1792; [7],1360 nM
same,Response Area,NCI-H1792; [7],2.83
same,Max Response (% I),"NCI-H1792; NCl-H1792, Lung, Additional Single Agent Responses, 72 h",98 % I
same,EC50,NCI-H1792; [8],1910 nM
same,GI50,NCI-H1792; [8],1440 nM
same,Response Area,NCI-H1792; [9],5.24
same,Max Response (% GI),"NCI-H1792; NCl-H1792, Lung, growth inhibition (GI), single agent, 72 h",192 % GI
same,EC50,NCI-H2030; [10],1050 nM
same,IC50,NCI-H2030; [10],1060 nM
same,Response Area,NCI-H2030; [10],2.92
same,Max Response (% I),"NCI-H2030; NCl-H2030, Lung, Additional Single Agent Responses, 72 h",98 % I
same,EC50,NCI-H2030; [11],1680 nM
same,GI50,NCI-H2030; [11],1130 nM
same,Response Area,NCI-H2030; [12],5.28
same,Max Response (% GI),"NCI-H2030; NCl-H2030, Lung, growth inhibition (GI), single agent, 72 h",188 % GI
same,EC50,NCI-H23; [13],1130 nM
same,IC50,NCI-H23; [13],1180 nM
same,Response Area,NCI-H23; [13],2.83
same,Max Response (% I),"NCI-H23; NCl-H23, Lung, Additional Single Agent Responses, 72 h",96 % I
same,EC50,NCI-H23; [14],1770 nM
same,GI50,NCI-H23; [14],1260 nM
same,Response Area,NCI-H23; [15],5.00
same,Max Response (% GI),"NCI-H23; NCl-H23, Lung, growth inhibition (GI), single agent, 72 h",181 % GI
C=CC(=O)N1CCN(c2nc(=O)n(-c3c(C)ccnc3C(C)C)c3nc(-c4c(O)cccc4F)c(F)cc23)[C@@H](C)C1 [AMG510],EC50,MIA PaCa-2; [16],5.7 nM
same,IC50,MIA PaCa-2; [16],14.7 nM
same,Emax,"MIA PaCa-2; Homo sapiens, MIA PaCa-2, Pancreas, Additional Single Agent Responses, 72 h, read-out: Max Response (% I)",63%
same,GI50,"MIA PaCa-2; Homo sapiens, MIA PaCa-2, Pancreas, growth inhibition (GI) curve, single agent, 72 h",9.2 nM
same,Emax,"MIA PaCa-2; Homo sapiens, MIA PaCa-2, Pancreas, growth inhibition (GI), single agent, 72 h, read-out: Max Response (% GI)",77%
same,Best CI,MIA PaCa-2; [17],0.65
same,Bliss Volume,MIA PaCa-2; [17],3.75
same,HSA volume,MIA PaCa-2; [17],5.03
same,Loewe Volume,MIA PaCa-2; [17],4.68
same,Synergy Score,MIA PaCa-2; [17],6.04
same,Response Area,MIA PaCa-2; [1],3.12
same,Response Area,MIA PaCa-2; [3],3.77
same,Best CI,MIA PaCa-2; [18],0.60
same,Best CI Level,MIA PaCa-2; [18],75
same,Bliss Volume,MIA PaCa-2; [18],0.19
same,HSA volume,MIA PaCa-2; [18],2.76
same,Loewe Volume,MIA PaCa-2; [18],2.52
same,Synergy Score,MIA PaCa-2; [18],2.16
same,EC50,"NCI-H1373; Homo sapiens, NCI-H1373, 72 h, NCl-H1373, Lung, Additional Single Agent Responses (inhibition, % I), 72 h",2.5 nM
same,EC50,"NCI-H1373; Homo sapiens, NCI-H1373, 72 h, NCl-H1373, Lung, growth inhibition (GI) curve, single agent, 72 h",2.1 nM
same,Emax,"NCI-H1373; Homo sapiens, NCl-H1373, Lung, Additional Single Agent Responses, 72 h, read-out: Max Response (% I)",49%
same,Emax,"NCI-H1373; Homo sapiens, NCl-H1373, Lung, growth inhibition (GI), single agent, 72 h, read-out: Max Response (% GI)",65%
same,Best CI,NCI-H1373; [19],0.28
same,Bliss Volume,NCI-H1373; [19],2.91
same,HSA volume,NCI-H1373; [19],1.67
same,Loewe Volume,NCI-H1373; [19],2.62
same,Synergy Score,NCI-H1373; [19],4.10
same,Response Area,NCI-H1373; [4],2.05
same,Response Area,NCI-H1373; [6],2.56
same,Best CI,NCI-H1373; [20],0.93
same,Best CI Level,NCI-H1373; [20],20
same,Bliss Volume,NCI-H1373; [20],−1.68
same,HSA volume,NCI-H1373; [20],0.90
same,Loewe Volume,NCI-H1373; [20],0.62
same,Synergy Score,NCI-H1373; [20],1.25
same,EC50,"NCI-H1792; Homo sapiens, NCI-H1792, NCl-H1792, Lung, Additional Single Agent Responses (inhibition, % I), 72 h",4.2 nM
same,Emax,"NCI-H1792; Homo sapiens, NCI-H1792, NCl-H1792, Lung, Additional Single Agent Responses, 72 h, read-out: Max Response (% I)",29%
same,Emax,"NCI-H1792; Homo sapiens, NCI-H1792, NCl-H1792, Lung, growth inhibition (GI), single agent, 72 h, read-out: Max Response (% GI)",37%
same,Best CI,NCI-H1792; [21],0.36
same,Bliss Volume,NCI-H1792; [21],5.76
same,HSA volume,NCI-H1792; [21],3.59
same,Loewe Volume,NCI-H1792; [21],4.64
same,Synergy Score,NCI-H1792; [21],3.62
same,Response Area,NCI-H1792; [7],1.05
same,Response Area,NCI-H1792; [9],1.34
same,Best CI,NCI-H1792; [22],0.46
same,Bliss Volume,NCI-H1792; [22],2.25
same,HSA volume,NCI-H1792; [22],2.86
same,Loewe Volume,NCI-H1792; [22],3.31
same,Synergy Score,NCI-H1792; [22],1.87
same,Best CI Level,"NCI-H1792; enhancer combined with MEI-522 (Voruciclib), NCl-H1792 (Lung), 72 hours, inhibition data, unit assumed",35%
same,EC50,"NCI-H2030; Homo sapiens, NCI-H2030, 72 h, NCl-H2030, Lung, Additional Single Agent Responses (inhibition, % I), 72 h",4.3 nM
same,EC50,"NCI-H2030; Homo sapiens, NCI-H2030, 72 h, NCl-H2030, Lung, growth inhibition (GI) curve, single agent, 72 h",4.4 nM
same,Emax,"NCI-H2030; Homo sapiens, NCl-H2030, Lung, Additional Single Agent Responses, 72 h, read-out: Max Response (% I)",38%
same,Emax,"NCI-H2030; Homo sapiens, NCl-H2030, Lung, growth inhibition (GI), single agent, 72 h, read-out: Max Response (% GI)",47%
same,Best CI,NCI-H2030; [23],0.47
same,Bliss Volume,NCI-H2030; [23],6.35
same,HSA volume,NCI-H2030; [23],4.90
same,Loewe Volume,NCI-H2030; [23],4.51
same,Synergy Score,NCI-H2030; [23],5.13
same,Response Area,NCI-H2030; [10],1.65
same,Response Area,NCI-H2030; [12],2.05
same,Best CI,NCI-H2030; [24],0.70
same,Best CI Level,NCI-H2030; [24],50
same,Bliss Volume,NCI-H2030; [24],1.77
same,HSA volume,NCI-H2030; [24],3.51
same,Loewe Volume,NCI-H2030; [24],3.26
same,Synergy Score,NCI-H2030; [24],2.04
same,EC50,NCI-H23; [25],6.7 nM
same,IC50,NCI-H23; [25],157 nM
same,Emax,"NCI-H23; Homo sapiens, NCI-H23, NCl-H23, Lung, Additional Single Agent Responses, 72 h, read-out: Max Response (% I)",56%
same,GI50,"NCI-H23; Homo sapiens, NCI-H23, NCl-H23, Lung, growth inhibition (GI) curve, single agent, 72 h",23.2 nM
same,Emax,"NCI-H23; Homo sapiens, NCI-H23, NCl-H23, Lung, growth inhibition (GI), single agent, 72 h, read-out: Max Response (% GI)",71%
same,Best CI,NCI-H23; [26],0.76
same,Bliss Volume,NCI-H23; [26],8.97
same,HSA volume,NCI-H23; [26],6.92
same,Loewe Volume,NCI-H23; [26],6.28
same,Synergy Score,NCI-H23; [26],8.27
same,Response Area,NCI-H23; [13],2.82
same,Response Area,NCI-H23; [15],3.60
same,Best CI,NCI-H23; [27],0.53
same,Best CI Level,NCI-H23; [27],80
same,Bliss Volume,NCI-H23; [27],1.69
same,HSA volume,NCI-H23; [27],4.54
same,Loewe Volume,NCI-H23; [27],3.98
same,Synergy Score,NCI-H23; [27],3.46
